This is an account of results in patent publication US6569640B1, “Method of fractionation of biologically-derived materials using critical fluids” (Aphios Corporation, priority 1993, dated 2003).

The test relates to Bacillus subtilis. The experiment in a line: Antimicrobial disk diffusion assay. The format is cell-based. The settings on record: disks containing 10 μg. The protocol: Microbial extracts were tested for antimicrobial activity by a disk diffusion assay. Diffusion of the metabolites into the agar creates a zone of growth inhibition around the disk if the organism is susceptible to the antimicrobial metabolite. Ten to 20 μl amounts of extract or extract fractions were applied to Whatman 3MM filter paper disks 7 mm in diameter. The disks were dried under vacuum overnight to evaporate the solvent. Bioassays were carried out with the target organism Bacillus subtilis. The target organisms were grown in nutrient broth (Difco), and adjusted to an A600 of 0.1. One hundred μl of the cell suspension was applied to the surface of a nutrient agar plate and spread uniformly with a sterile spreader. After the liquid had absorbed into the agar, the disks were placed on the surface, about 1 cm apart. The plates were incubated at 25-30° C. for 24-36 hours. Antimicrobial activity was indicated by a zone of inhibition around a disk where bacterial growth was prevented. […] In addition, positive and negative control disks were utilized. For the negative control, a disk which received only methanol was run in each test. […] For the positive control, disks containing the antimicrobial gentamycin (10 μg) were used.

Turning to gentamycin, the “zone of inhibition, positive control disk” value is “showed zones of inhibition”.
